This is an account of results in US8916551B2, “Heterocyclic compound and use thereof” (Takeda Pharmaceutical Company Limited, priority 2010, dated 2014).

Molecules are shown by their SMILES.

T1 sequence (P42261 19-906 isoform P42261-2 limits assumed): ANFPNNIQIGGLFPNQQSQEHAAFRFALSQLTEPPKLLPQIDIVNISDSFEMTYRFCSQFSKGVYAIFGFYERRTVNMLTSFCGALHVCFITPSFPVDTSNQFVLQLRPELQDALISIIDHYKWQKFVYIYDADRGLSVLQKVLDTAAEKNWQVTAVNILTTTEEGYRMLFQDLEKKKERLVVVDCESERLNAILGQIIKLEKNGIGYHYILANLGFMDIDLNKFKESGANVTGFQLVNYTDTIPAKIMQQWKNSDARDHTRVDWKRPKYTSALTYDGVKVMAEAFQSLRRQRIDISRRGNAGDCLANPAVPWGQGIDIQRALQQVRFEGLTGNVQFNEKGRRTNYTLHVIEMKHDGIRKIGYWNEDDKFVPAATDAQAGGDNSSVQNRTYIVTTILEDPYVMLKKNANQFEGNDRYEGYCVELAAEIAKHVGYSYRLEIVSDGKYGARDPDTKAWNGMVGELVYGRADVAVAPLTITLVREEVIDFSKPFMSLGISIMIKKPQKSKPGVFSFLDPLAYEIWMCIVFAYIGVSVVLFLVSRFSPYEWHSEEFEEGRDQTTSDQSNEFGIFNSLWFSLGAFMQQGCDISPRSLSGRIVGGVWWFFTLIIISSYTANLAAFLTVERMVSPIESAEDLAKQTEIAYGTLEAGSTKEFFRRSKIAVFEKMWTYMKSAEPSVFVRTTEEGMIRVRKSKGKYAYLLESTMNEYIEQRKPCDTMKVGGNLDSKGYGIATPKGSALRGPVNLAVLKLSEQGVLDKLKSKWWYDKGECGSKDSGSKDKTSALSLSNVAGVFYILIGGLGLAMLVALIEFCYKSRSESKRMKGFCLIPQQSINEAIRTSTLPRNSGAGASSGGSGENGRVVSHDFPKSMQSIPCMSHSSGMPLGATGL
T1 sequence (Q9Y698 whole entry partner): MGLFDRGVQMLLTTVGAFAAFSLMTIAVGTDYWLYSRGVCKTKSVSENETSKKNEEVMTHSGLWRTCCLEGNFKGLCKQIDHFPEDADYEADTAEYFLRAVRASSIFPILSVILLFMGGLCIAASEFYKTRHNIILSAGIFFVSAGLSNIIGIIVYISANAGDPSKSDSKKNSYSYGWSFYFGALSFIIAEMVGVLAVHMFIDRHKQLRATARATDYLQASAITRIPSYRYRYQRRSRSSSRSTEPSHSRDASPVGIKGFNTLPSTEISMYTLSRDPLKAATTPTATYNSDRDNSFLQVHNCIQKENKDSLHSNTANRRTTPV

One test addresses T1, AMPA receptor (human GluR1 flip/stargazin expressed in CHO-K1 cells) (Homo sapiens, UniProt P42261).
T1 construct: expressed in transfected cells; host or cells: CHO-K1
As to the kind of experiment: AMPA receptor function enhancing activity using calcium influx as index. In kind it is cell-based. Conditions: test compound 30 μM with 3 mM glutamic acid, change in fluorescence level in 3 min, 100% = 3 mM glutamic acid + 300 μM cyclothiazide, 0% = 3 mM glutamic acid only. An excerpt:
Human GluR1 flip cDNA was amplified by PCR using forward primer […] (SEQ ID NO: 1) and reverse primer […] (SEQ ID NO: 2) artificially synthesized using human brain-derived cDNA (BD Bio science) as a template. The amplified product was digested with restriction enzymes EcoRI, NotI (TAKARA SHUZO CO. LTD.), and incorporated into the same site of pcDNA3.1(+) (Invitrogen) to construct pcDNA3.1(+)/human GluR1 flip gene. Human stargazin cDNA was amplified by PCR using forward primer […] (SEQ ID NO: 3) and reverse primer […] (SEQ ID NO: 4) artificially synthesized using human hippocampus cDNA as a template. The amplified product was digested with restriction enzymes XhoI, BamHI (TAKARA SHUZO CO. LTD.), and incorporated into the same site of pcDNA3.1(−) (Invitrogen) to construct pcDNA3.1 Zeo(−)/human stargazin gene.
CHO-K1 cells passaged in a culture medium (Ham's F12 medium (Invitrogen) added with 10% inactivated fetal bovine serum (Morgate) and penicillin, streptomycin (Invitrogen)) were detached with 0.05% trypsin, 0.53 mM EDTA (Invitrogen) diluted with D-PBS(−). The detached cells were suspended in a culture medium, and recovered by a centrifugation operation at 1,000 rpm. The recovered cells were suspended again in D-PBS(−), and added to a 0.4 cm electroporation cuvette (BioRad). pcDNA3.1(+)/human GluR1 flip gene (5 μg) and pcDNA3.1 Zeo(−)/human stargazin gene (15 μg) were added, and the mixture was introduced into CHO-K1 cells using Gene Pulser II (BioRad) under the conditions of 950 μFd, […]. The introduced cells were cultured overnight in a culture medium and, the next day, plated in a 96 well plate at 250 cells/well using a selection medium (culture medium added with Zeocin (Invitrogen) to 250 μg/mL). Clones showing drug resistance were selected, and GluR1 flip/stargazin expressing clones were selected by an assay method using calcium influx as an index as shown below.
CHO-K1/GluR1 flip/stargazin expressing cells were plated on a 96 well black transparent bottom plate (Costar) at 2×10^4 cells/well, and cultured in a 37° C., CO2 incubator (SANYO Electric Co., Ltd.) for 2 days. The medium in the cell plate was removed, and assay buffer A (D-MEM (Invitrogen), 0.1% BSA (Serogical Protein), 20 mM HEPES (Invitrogen)) was added at 50 μL/well. A calcium indicator (Calcium 4 Assay Kit, Invitrogen) added with 2.5 mM probenecid (Invitrogen) was added at 50 μL/well and the well was left standing in 37° C., CO2 incubator for 1 hr. The cell plate was set in CellLux (PerkinElmer), a mixture (50 μL) of 9 mM glutamic acid diluted with assay buffer B (HBSS (Invitrogen), 0.1% BSA, 20 mM HEPES) (final concentration 3 mM) and a test compound (test compound concentration 30 μM) was added, and the amount of change in fluorescence level in 3 min was measured. In the definition here, the amount of change in fluorescence level of well added with glutamic acid at final concentration 3 mM and 300 μM cyclothiazide (TOCRIS) is 100%, the amount of change in fluorescence level of well added only with glutamic acid at final concentration 3 mM is 0%, and the compound activity was calculated according to the following formula. activity(%)=(X−C)/(T−C)×100 T: amount of change in fluorescence level of well added with glutamic acid at final concentration 3 mM and 300 μM cyclothiazide C: amount of change in fluorescence level of well added only with glutamic acid at final concentration 3 mM X: amount of change in fluorescence level of well added with test compound
As for `O=S1(=O)CCN2C=C(Cl)C=C(c3ccc(OCC4CCCO4)cc3)C2=N1` (stereo not drawn) [Example 251, 7-chloro-9-[4-(tetrahydrofuran-2-ylmethoxy)phenyl]-3,4-dihydropyrido[2,1-c][1,2,4]thiadiazine 2,2-dioxide], the “activity (%)” value was 81%.
On the same count and under the same terms, in the case of `O=C1CCCCC1Oc1ccc(C2=CC=CN3CCS(=O)(=O)N=C23)cc1` (stereo not drawn) [Example 274, 2-[4-(2,2-dioxido-3,4-dihydropyrido[2,1-c][1,2,4]thiadiazin-9-yl)phenoxy]cyclohexanone] it was 85%; in that of `O=S1(=O)CCN2C=CC=C(Oc3ccc4c(c3)CCCC4)C2=N1` [Example 237, 9-(5,6,7,8-tetrahydronaphthalen-2-yloxy)-3,4-dihydropyrido[2,1-c][1,2,4]thiadiazine 2,2-dioxide], 66%; in that of `CC(F)(F)c1cccc(Oc2ccc(C3=CC=CN4CCS(=O)(=O)N=C34)cc2)c1` [Example 156, 9-{4-[3-(1,1-difluoroethyl)phenoxy]phenyl}-3,4-dihydropyrido[2,1-c][1,2,4]thiadiazine 2,2-dioxide], 90%.
Still for that read-out and setting: in the case of `CC(F)(F)c1ccc(C2CCCN3CCS(=O)(=O)N=C23)cc1` (stereo not drawn) [Example 231, 9-[4-(1,1-difluoroethyl)phenyl]-3,4,6,7,8,9-hexahydropyrido[2,1-c][1,2,4]thiadiazine 2,2-dioxide] it was 78%; in that of `O=S1(=O)CCN2C=C(Cl)C=C(c3ccc(Oc4cncc(C(F)(F)F)c4)cc3)C2=N1` [Example 260, 7-chloro-9-(4-{[5-(trifluoromethyl)pyridin-3-yl]oxy}phenyl)-3,4-dihydropyrido[2,1-c][1,2,4]thiadiazine 2,2-dioxide], 91%.
In the case of `O=S1(=O)CCN2C=CC=C(c3ccc(-c4ccccc4)nc3)C2=N1` [Example 282, 9-(6-phenylpyridin-3-yl)-3,4-dihydropyrido[2,1-c][1,2,4]thiadiazine 2,2-dioxide], the “activity (%)” value came to 84%.
The same measure, in the same setting: in the case of `O=S1(=O)CCN2C=CC=C(c3ccc(Oc4ccc(C(F)(F)F)nc4)cc3)C2=N1` [Example 254, 9-(4-{[6-(trifluoromethyl)pyridin-3-yl]oxy}phenyl)-3,4-dihydropyrido[2,1-c][1,2,4]thiadiazine 2,2-dioxide] it was 81%; in that of `O=S1(=O)CCN2C=CC=C(c3ccc(Oc4ccccc4)cn3)C2=N1` [Example 258, 9-(5-phenoxypyridin-2-yl)-3,4-dihydropyrido[2,1-c][1,2,4]thiadiazine 2,2-dioxide], 79%.

The test is the same for the next values; noted with them: test compound 30 μM with glutamic acid final 3 mM, change in fluorescence in 3 min, 100% = 3 mM glutamic acid + 300 μM cyclothiazide, 0% = 3 mM glutamic acid only.
Take `Cc1ccc(Oc2ccc(C3=CC=CN4CCS(=O)(=O)N=C34)cc2)cc1C` [Example 134, 9-[4-(3,4-dimethylphenoxy)phenyl]-3,4-dihydropyrido[2,1-c][1,2,4]thiadiazine 2,2-dioxide]: the “activity (%)” value is on record as 77%.
Consider `Cc1cc(Oc2ccc(C3CCCN4CCS(=O)(=O)N=C34)cc2)ccc1F` (stereo not drawn) [Example 112, 9-[4-(4-fluoro-3-methylphenoxy)phenyl]-3,4,6,7,8,9-hexahydropyrido[2,1-c][1,2,4]thiadiazine 2,2-dioxide], for which the “activity (%)” value is on record as 79%.
Same read-out and setting: in the case of `Cc1cccc(Oc2ccc(C3=CC=CN4CCS(=O)(=O)N=C34)cc2)c1` [Example 117, 9-[4-(3-methylphenoxy)phenyl]-3,4-dihydropyrido[2,1-c][1,2,4]thiadiazine 2,2-dioxide] it was 90%; in that of `O=S1(=O)CCN2C=CC=C(c3ccc4ccccc4c3)C2=N1` [Example 46, 9-naphthalen-2-yl-3,4-dihydropyrido[2,1-c][1,2,4]thiadiazine 2,2-dioxide], 80%; in that of `CC(C)c1ccc(CCC2=CC=CN3CCS(=O)(=O)N=C23)cc1` [Example 25, 9-{2-[4-(1-methylethyl)phenyl]ethyl}-3,4-dihydropyrido[2,1-c][1,2,4]thiadiazine 2,2-dioxide], 98%.
For `Cc1ccc(C(F)(F)c2ccc(C3=CC=CN4CCS(=O)(=O)N=C34)cc2)cc1` [Example 136, 9-{4-[difluoro(4-methylphenyl)methyl]phenyl}-3,4-dihydropyrido[2,1-c][1,2,4]thiadiazine 2,2-dioxide], the “activity (%)” value is on record as 77%.
For `Cc1nc2cc(OC3=CC=CN4CCS(=O)(=O)N=C34)ccc2s1` [Example 24, 9-[(2-methyl-1,3-benzothiazol-5-yl)oxy]-3,4-dihydropyrido[2,1-c][1,2,4]thiadiazine 2,2-dioxide], the “activity (%)” value worked out at 78%.
Consider `CCc1cccc(Oc2ccc(C3CCCN4CCS(=O)(=O)N=C34)cc2)c1` (stereo not drawn) [Example 131, 9-[4-(3-ethylphenoxy)phenyl]-3,4,6,7,8,9-hexahydropyrido[2,1-c][1,2,4]thiadiazine 2,2-dioxide], for which the “activity (%)” value worked out at 58%.
Still for that read-out and setting: in the case of `COc1cc(Oc2ccc(C3=CC=CN4CCS(=O)(=O)N=C34)cc2)ccc1F` [Example 316, 9-[4-(4-fluoro-3-methoxyphenoxy)phenyl]-3,4-dihydropyrido[2,1-c][1,2,4]thiadiazine 2,2-dioxide] it was 89%; in that of `O=S1(=O)CCN2C=CC=C(c3ccc(N4CCCC4)cc3)C2=N1` [Example 80, 9-(4-pyrrolidin-1-ylphenyl)-3,4-dihydropyrido[2,1-c][1,2,4]thiadiazine 2,2-dioxide], 88%; in that of `O=S1(=O)CCN2CCCC(c3ccc(Oc4ccccc4)cc3)C2=N1` (stereo not drawn) [Example 43, 9-(4-phenoxyphenyl)-3,4,6,7,8,9-hexahydropyrido[2,1-c][1,2,4]thiadiazine 2,2-dioxide], 81%.
Turning to `Cc1cc(Oc2ccc(C3CCCN4CCS(=O)(=O)N=C34)cc2)ccc1F` (stereo not drawn) [Example 113, 9-[4-(4-fluoro-3-methylphenoxy)phenyl]-3,4,6,7,8,9-hexahydropyrido[2,1-c][1,2,4]thiadiazine 2,2-dioxide], the “activity (%)” value is recorded as 86%.
With `O=S1(=O)CCN2C=CC=C(c3ccc(Oc4ccc5c(c4)OCC5)cc3)C2=N1` [Example 313, 9-[4-(2,3-dihydro-1-benzofuran-6-yloxy)phenyl]-3,4-dihydropyrido[2,1-c][1,2,4]thiadiazine 2,2-dioxide], the “activity (%)” value was 95%.
On the same count and under the same terms, in the case of `O=S1(=O)CCN2CCCC(c3ccc(Oc4ccc(F)c(Cl)c4)cc3)C2=N1` (stereo not drawn) [Example 447, 9-[4-(3-chloro-4-fluorophenoxy)phenyl]-3,4,6,7,8,9-hexahydropyrido[2,1-c][1,2,4]thiadiazine 2,2-dioxide] it was 78%; in that of `CC(C)(c1ccccc1)c1ccc(C2=CC=CN3CCS(=O)(=O)N=C23)cc1` [Example 325, 9-[4-(1-methyl-1-phenylethyl)phenyl]-3,4-dihydropyrido[2,1-c][1,2,4]thiadiazine 2,2-dioxide], 99%; in that of `O=S1(=O)CCN2C=CC=C(c3ccc(OC4CCC4)cc3)C2=N1` [Example 91, 9-[4-(cyclobutyloxy)phenyl]-3,4-dihydropyrido[2,1-c][1,2,4]thiadiazine 2,2-dioxide], 81%.
Still for that read-out and setting: in the case of `CC(C)Cn1ccc2cc(C3=CC=CN4CCS(=O)(=O)N=C34)ccc21` [Example 293, 9-[1-(2-methylpropyl)-1H-indol-5-yl]-3,4-dihydropyrido[2,1-c][1,2,4]thiadiazine 2,2-dioxide] it was 80%; in that of `CC1CC(c2ccc(Oc3ccccc3)cc2)C2=NS(=O)(=O)CCN2C1` (stereo not drawn) [Example 99, 7-methyl-9-(4-phenoxyphenyl)-3,4,6,7,8,9-hexahydropyrido[2,1-c][1,2,4]thiadiazine 2,2-dioxide], 73%.
